Here are results for two compounds from patent publication US12390481B2, “Sialic acid compositions for the use of inhibiting and treating coronavirus infection” (LifeScience AS, priority 2020, dated 2025).

Series [1] has as its system CoV-OC43. Nature of the series: in vitro inhibition of infection of cells with test virus CoV-OC43. It is filed as cell-based. The following applies: for infection of cells by CoV-OC43 at different concentrations: different dilutions of the sialic acid, two replicates, FIGS. 1 and 2. The protocol:
FIG. 1 provides data from one replicate showing infection of cells by CoV-OC43 at different concentrations of either Neu5Ac or Neu5Gc.
FIG. 2 provides data from another replicate showing infection of cells by CoV-OC43 at different concentrations of either Neu5Ac or Neu5Gc.
FIG. 3 provides data from an experiment where inhibition of infection by Neu5Ac is compared to a control sugar, galactose.
The effectiveness of sialic acid (Neu5Ac or Neu5Gc) in preventing corona virus infection was evaluated in vitro in a model system. Different dilutions of the sialic acids were tested for their ability to inhibit infection of cells with the test virus CoV-OC43. FIGS. 1 and 2 provide data from two replicates showing infection of cells by CoV-OC43 at different concentrations of either Neu5Ac or Neu5Gc (Neu5Ac left hand bars, Neu5Gc right hand bars).

For series [2] the following is noted: according to Schalcter (2017), cited from earlier work.

Turning to `O=C(CO)N[C@H]1[C@H]([C@H](O)[C@H](O)CO)OC(O)(C(=O)O)C[C@@H]1O` (some centres unmarked) [Neu5Gc, N-glycolylneuraminic acid], the “infection of cells by CoV-OC43 at different concentrations” value in series [1] was “inhibited in a dose-dependent manner”.
Regarding `CC(=O)N[C@H]1[C@H]([C@H](O)[C@H](O)CO)OC(O)(C(=O)O)C[C@@H]1O` (some centres unmarked) [Neu5Ac, N-acetyl neuraminic acid], in series [1] (CoV-OC43, FIG. 3), the “inhibition of infection compared to a control sugar, galactose” value is listed as “prevents infection as compared to the control”. Further, in series [1], the “infection of cells by CoV-OC43 at different concentrations” value was “inhibited in a dose-dependent manner”. Moreover, the excretion via urine result in series [2] was “quickly excreted via urine”. Moreover, the absorption after ingestion result in series [2] (after ingestion) is on record as “rapidly absorbed”.
